From ChEMBL document CHEMBL4507295 (2021)

Legend:
[1] = target: Mitogen-activated protein kinase kinase kinase 14 (Homo sapiens) (UniProt Q99558); details: Compound concentration 1000.0 nM
[2] = target: RAC-beta serine/threonine-protein kinase (Homo sapiens) (UniProt P31751); details: Compound concentration 1000.0 nM
[3] = target: Serine/threonine-protein kinase TNNI3K (Homo sapiens) (UniProt Q59H18); details: Compound concentration 1000.0 nM
[4] = target: Macrophage-stimulating protein receptor (Homo sapiens) (UniProt Q04912); details: Compound concentration 1000.0 nM
[5] = target: Beta-3 adrenergic receptor (Homo sapiens) (UniProt P13945); details: Compound concentration 10.0 uM
[6] = target: Serine/threonine-protein kinase ICK (Homo sapiens) (UniProt Q9UPZ9); details: Compound concentration 1000.0 nM
[7] = target: Casein kinase I isoform delta (Homo sapiens) (UniProt P48730); details: Compound concentration 1000.0 nM
[8] = target: Dual specificity mitogen-activated protein kinase kinase 3 (Homo sapiens) (UniProt P46734); details: Compound concentration 1000.0 nM
[9] = system: Tyrosine-protein kinase ABL1 (Homo sapiens), P00519 [Q252H]; details: Compound concentration 1000.0 nM
[10] = target: Mu-type opioid receptor (Homo sapiens) (UniProt P35372); details: Compound concentration 10.0 uM
[11] = target: Tyrosine-protein kinase ABL1 (Homo sapiens) (UniProt P00519); details: Compound concentration 1000.0 nM
[12] = target: Serine/threonine-protein kinase MRCK gamma (Homo sapiens) (UniProt Q6DT37); details: Compound concentration 1000.0 nM
[13] = target: Casein kinase I isoform gamma-1 (Homo sapiens) (UniProt Q9HCP0); details: Compound concentration 1000.0 nM
[14] = target: Serine/threonine-protein kinase WNK3 (Homo sapiens) (UniProt Q9BYP7); details: Compound concentration 1000.0 nM
[15] = target: Serine/threonine-protein kinase ULK3 (Homo sapiens) (UniProt Q6PHR2); details: Compound concentration 1000.0 nM
[16] = target: Serine/threonine-protein kinase 38 (Homo sapiens) (UniProt Q15208); details: Compound concentration 1000.0 nM
[17] = target: MAP/microtubule affinity-regulating kinase 4 (Homo sapiens) (UniProt Q96L34); details: Compound concentration 1000.0 nM
[18] = target: Insulin receptor-related protein (Homo sapiens) (UniProt P14616); details: Compound concentration 1000.0 nM
[19] = target: BDNF/NT-3 growth factors receptor (Homo sapiens) (UniProt Q16620); details: Compound concentration 1000.0 nM
[20] = target: NUAK family SNF1-like kinase 2 (Homo sapiens) (UniProt Q9H093); details: Compound concentration 1000.0 nM
[21] = system: Epidermal growth factor receptor (Homo sapiens), P00533 [G719C]; details: Compound concentration 1000.0 nM
[22] = target: Phosphatidylinositol 3-kinase C2 domain-containing subunit gamma (Homo sapiens) (UniProt O75747); details: Compound concentration 1000.0 nM
[23] = target: Mitogen-activated protein kinase 12 (Homo sapiens) (UniProt P53778); details: Compound concentration 1000.0 nM
[24] = system: Hepatocyte growth factor receptor (Homo sapiens), P08581 [Y1235D]; details: Compound concentration 1000.0 nM
[25] = target: Serine/threonine-protein kinase tousled-like 1 (Homo sapiens) (UniProt Q9UKI8); details: Compound concentration 1000.0 nM
[26] = system: Epidermal growth factor receptor (Homo sapiens), P00533 [T790M]; details: Compound concentration 1000.0 nM
[27] = target: Serine/threonine-protein kinase PAK 4 (Homo sapiens) (UniProt O96013); details: Compound concentration 1000.0 nM
[28] = target: Dual specificity protein kinase CLK2 (Homo sapiens) (UniProt P49760); details: Compound concentration 1000.0 nM
[29] = target: Aurora kinase A (Homo sapiens) (UniProt O14965); details: Compound concentration 1000.0 nM
[30] = target: Inhibitor of nuclear factor kappa-B kinase subunit beta (Homo sapiens) (UniProt O14920); details: Compound concentration 1000.0 nM
[31] = target: Homeodomain-interacting protein kinase 3 (Homo sapiens) (UniProt Q9H422); details: Compound concentration 1000.0 nM
Sequence of Homeodomain-interacting protein kinase 3 (Homo sapiens) (Q9H422 whole entry, looked up, the tested form may be a part): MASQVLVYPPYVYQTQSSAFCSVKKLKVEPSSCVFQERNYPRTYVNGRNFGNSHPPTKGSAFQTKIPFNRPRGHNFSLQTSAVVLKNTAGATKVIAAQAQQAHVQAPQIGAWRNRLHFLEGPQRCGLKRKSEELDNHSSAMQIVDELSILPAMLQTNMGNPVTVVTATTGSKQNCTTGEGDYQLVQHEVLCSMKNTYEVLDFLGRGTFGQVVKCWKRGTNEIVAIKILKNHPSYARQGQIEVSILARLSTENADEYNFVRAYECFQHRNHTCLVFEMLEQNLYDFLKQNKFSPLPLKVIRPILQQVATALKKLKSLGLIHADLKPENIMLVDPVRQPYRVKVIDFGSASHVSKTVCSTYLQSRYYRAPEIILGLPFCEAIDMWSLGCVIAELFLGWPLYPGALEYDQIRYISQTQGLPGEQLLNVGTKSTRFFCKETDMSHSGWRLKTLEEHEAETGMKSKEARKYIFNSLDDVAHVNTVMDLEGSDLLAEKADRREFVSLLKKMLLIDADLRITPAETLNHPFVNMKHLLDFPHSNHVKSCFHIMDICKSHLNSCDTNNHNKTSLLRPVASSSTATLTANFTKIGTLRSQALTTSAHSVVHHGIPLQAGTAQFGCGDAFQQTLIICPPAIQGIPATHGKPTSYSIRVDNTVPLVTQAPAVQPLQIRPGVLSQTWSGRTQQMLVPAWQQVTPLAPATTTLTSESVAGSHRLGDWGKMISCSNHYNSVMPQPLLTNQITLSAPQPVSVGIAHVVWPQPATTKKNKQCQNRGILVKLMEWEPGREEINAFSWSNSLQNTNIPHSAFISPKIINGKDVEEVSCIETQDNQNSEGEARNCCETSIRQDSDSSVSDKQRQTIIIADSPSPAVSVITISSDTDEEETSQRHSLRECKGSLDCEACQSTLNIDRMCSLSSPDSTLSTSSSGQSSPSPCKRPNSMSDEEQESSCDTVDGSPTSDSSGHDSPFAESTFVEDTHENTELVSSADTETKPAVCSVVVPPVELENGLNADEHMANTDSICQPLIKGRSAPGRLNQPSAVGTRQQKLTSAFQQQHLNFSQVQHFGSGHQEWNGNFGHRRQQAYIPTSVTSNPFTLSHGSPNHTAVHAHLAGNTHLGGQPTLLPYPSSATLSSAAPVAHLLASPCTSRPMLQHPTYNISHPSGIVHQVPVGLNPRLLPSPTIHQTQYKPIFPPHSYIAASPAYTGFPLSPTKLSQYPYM

[32] = target: Discoidin domain-containing receptor 2 (Homo sapiens) (UniProt Q16832); details: Compound concentration 1000.0 nM
[33] = target: Tyrosine-protein kinase JAK3 (Homo sapiens) (UniProt P52333); details: Compound concentration 1000.0 nM
Sequence of Tyrosine-protein kinase JAK3 (Homo sapiens) (P52333 whole entry): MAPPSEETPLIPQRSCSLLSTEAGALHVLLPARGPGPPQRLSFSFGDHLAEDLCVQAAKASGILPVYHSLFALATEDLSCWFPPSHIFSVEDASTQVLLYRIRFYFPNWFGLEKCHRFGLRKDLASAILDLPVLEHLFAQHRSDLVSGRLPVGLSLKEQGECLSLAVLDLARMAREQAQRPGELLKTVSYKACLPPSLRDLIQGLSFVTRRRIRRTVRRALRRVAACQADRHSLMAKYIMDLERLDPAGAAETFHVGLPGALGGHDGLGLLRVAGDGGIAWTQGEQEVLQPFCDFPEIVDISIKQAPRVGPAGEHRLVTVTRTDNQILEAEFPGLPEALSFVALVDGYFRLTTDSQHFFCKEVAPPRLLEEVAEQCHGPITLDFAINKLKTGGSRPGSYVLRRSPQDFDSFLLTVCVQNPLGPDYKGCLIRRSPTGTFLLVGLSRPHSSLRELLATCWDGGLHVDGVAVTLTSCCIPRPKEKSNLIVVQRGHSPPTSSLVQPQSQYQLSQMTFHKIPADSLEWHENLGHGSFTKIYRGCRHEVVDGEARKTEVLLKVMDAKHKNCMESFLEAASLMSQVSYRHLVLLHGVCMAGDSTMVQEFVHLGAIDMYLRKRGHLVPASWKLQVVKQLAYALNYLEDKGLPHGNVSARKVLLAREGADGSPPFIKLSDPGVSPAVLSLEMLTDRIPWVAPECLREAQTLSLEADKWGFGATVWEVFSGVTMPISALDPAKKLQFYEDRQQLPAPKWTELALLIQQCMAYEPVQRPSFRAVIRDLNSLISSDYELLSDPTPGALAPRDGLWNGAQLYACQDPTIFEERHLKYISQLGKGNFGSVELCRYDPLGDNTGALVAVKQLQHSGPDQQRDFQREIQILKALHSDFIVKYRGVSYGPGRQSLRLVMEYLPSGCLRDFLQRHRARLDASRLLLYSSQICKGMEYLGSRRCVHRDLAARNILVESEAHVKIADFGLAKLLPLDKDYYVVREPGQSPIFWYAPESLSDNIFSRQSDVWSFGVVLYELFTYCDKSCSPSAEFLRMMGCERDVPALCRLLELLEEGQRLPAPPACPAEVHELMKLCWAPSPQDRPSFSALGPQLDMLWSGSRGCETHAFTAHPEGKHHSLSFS

[34] = target: Protein-tyrosine kinase 6 (Homo sapiens) (UniProt Q13882); details: Compound concentration 1000.0 nM
[35] = target: Serine/threonine-protein kinase Nek5 (Homo sapiens) (UniProt Q6P3R8); details: Compound concentration 1000.0 nM
[36] = target: cAMP-dependent protein kinase catalytic subunit beta (Homo sapiens) (UniProt P22694); details: Compound concentration 1000.0 nM
[37] = target: Serine/threonine-protein kinase Nek11 (Homo sapiens) (UniProt Q8NG66); details: Compound concentration 1000.0 nM
Sequence of Serine/threonine-protein kinase Nek11 (Homo sapiens) (Q8NG66 whole entry, the tested form may be a part): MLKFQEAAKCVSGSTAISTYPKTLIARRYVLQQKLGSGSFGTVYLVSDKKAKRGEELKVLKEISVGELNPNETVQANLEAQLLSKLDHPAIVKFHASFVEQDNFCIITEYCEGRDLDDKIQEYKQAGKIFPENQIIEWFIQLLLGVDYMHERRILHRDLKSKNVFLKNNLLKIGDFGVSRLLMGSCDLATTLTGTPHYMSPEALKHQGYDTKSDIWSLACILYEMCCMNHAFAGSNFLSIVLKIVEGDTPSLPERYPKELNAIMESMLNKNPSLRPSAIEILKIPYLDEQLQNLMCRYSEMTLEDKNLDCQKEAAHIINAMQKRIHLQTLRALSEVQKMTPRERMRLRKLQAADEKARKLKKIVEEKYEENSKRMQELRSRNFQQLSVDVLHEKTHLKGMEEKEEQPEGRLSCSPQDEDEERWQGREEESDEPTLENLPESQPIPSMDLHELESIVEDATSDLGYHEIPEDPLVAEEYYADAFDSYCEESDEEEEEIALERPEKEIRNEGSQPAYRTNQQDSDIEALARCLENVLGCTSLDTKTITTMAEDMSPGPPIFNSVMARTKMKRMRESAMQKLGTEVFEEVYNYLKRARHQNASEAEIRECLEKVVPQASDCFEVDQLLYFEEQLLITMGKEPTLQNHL

[38] = target: LIM domain kinase 1 (Homo sapiens) (UniProt P53667); details: Compound concentration 1000.0 nM
Sequence of LIM domain kinase 1 (Homo sapiens) (P53667 whole entry, looked up, the tested form may be a part): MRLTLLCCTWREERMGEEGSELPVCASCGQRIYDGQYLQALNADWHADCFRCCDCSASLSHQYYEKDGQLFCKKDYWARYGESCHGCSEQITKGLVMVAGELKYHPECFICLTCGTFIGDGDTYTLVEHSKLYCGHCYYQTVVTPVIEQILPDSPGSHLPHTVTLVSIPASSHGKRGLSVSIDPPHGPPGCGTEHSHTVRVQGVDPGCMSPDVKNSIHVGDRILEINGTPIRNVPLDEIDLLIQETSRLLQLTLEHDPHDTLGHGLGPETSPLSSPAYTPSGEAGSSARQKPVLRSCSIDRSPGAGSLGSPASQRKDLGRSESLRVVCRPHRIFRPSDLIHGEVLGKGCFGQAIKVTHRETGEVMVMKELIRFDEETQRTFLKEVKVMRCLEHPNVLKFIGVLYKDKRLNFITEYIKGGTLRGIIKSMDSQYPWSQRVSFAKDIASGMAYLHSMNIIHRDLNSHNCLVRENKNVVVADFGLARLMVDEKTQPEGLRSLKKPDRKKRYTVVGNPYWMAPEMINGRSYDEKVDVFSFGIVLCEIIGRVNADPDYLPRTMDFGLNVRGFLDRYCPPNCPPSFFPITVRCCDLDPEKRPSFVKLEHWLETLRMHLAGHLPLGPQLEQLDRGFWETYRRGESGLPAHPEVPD

[39] = target: Inhibitor of nuclear factor kappa-B kinase subunit epsilon (Homo sapiens) (UniProt Q14164); details: Compound concentration 1000.0 nM
[40] = target: Cyclin-dependent kinase 19 (Homo sapiens) (UniProt Q9BWU1); details: Compound concentration 1000.0 nM
[41] = target: Misshapen-like kinase 1 (Homo sapiens) (UniProt Q8N4C8); details: Compound concentration 1000.0 nM
[42] = target: Mitogen-activated protein kinase kinase kinase 13 (Homo sapiens) (UniProt O43283); details: Compound concentration 1000.0 nM
[43] = target: Ribosomal protein S6 kinase alpha-2 (Homo sapiens) (UniProt Q15349); details: Compound concentration 1000.0 nM
Sequence of Ribosomal protein S6 kinase alpha-2 (Homo sapiens) (Q15349 whole entry): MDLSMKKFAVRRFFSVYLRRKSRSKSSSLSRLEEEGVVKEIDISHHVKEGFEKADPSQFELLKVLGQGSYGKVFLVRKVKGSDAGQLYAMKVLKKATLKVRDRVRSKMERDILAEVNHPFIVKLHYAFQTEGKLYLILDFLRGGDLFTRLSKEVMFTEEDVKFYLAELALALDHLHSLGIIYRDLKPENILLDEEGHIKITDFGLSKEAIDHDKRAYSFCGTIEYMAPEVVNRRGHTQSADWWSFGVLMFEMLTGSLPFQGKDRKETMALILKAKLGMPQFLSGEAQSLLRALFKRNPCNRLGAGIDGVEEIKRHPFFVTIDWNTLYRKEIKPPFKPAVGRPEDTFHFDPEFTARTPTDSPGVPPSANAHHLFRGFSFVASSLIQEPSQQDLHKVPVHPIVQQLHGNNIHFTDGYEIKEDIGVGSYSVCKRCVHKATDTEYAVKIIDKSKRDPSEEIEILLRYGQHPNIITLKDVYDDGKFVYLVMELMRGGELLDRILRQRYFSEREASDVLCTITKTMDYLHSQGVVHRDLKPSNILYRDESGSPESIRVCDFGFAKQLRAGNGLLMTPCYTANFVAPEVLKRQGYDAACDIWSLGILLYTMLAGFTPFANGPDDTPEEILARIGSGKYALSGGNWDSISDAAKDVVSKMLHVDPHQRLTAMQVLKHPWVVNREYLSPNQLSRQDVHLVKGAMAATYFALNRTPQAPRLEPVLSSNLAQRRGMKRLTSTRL

[44] = target: Calcium/calmodulin-dependent protein kinase type 1G (Homo sapiens) (UniProt Q96NX5); details: Compound concentration 1000.0 nM
[45] = target: Activin receptor type-1B (Homo sapiens) (UniProt P36896); details: Compound concentration 1000.0 nM
Sequence of Activin receptor type-1B (Homo sapiens) (P36896 whole entry): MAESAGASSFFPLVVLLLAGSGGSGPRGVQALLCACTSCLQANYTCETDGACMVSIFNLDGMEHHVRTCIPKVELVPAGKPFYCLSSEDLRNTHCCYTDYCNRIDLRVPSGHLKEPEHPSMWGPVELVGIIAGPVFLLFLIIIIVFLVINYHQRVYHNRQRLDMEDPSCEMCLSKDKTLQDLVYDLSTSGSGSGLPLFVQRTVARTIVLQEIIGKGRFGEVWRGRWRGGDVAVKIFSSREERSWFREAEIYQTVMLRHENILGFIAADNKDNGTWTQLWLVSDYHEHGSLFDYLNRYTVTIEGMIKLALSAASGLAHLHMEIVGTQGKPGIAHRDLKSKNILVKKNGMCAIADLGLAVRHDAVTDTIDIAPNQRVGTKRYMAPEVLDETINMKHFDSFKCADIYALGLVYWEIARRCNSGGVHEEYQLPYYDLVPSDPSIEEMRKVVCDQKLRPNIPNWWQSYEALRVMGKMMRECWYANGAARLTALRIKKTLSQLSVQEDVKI

N#CC1(c2ccccn2)CCN(Cc2cc(C(=O)N3CCCC3)c(=O)n3ccccc23)CC1
inactive: residual activity [1] 100% | residual activity [2] 84% | residual activity [3] 89% | residual activity [4] 100% | inhibition [5] 17.4% | residual activity [6] 100% | residual activity [7] 74% | residual activity [8] 81% | residual activity [9] 97% | inhibition [10] 35% | residual activity [11] 89% | residual activity [12] 88% | residual activity [13] 79% | residual activity [14] 94% | residual activity [15] 96% | residual activity [16] 64% | residual activity [17] 90% | residual activity [18] 93% | residual activity [19] 93% | residual activity [20] 100% | residual activity [21] 80% | residual activity [22] 73% | residual activity [23] 100% | residual activity [24] 97% | residual activity [25] 85% | residual activity [26] 90% | residual activity [27] 100% | residual activity [28] 100% | residual activity [29] 90% | residual activity [30] 99% | residual activity [31] 97% | residual activity [32] 100% | residual activity [33] 100% | residual activity [34] 82% | residual activity [35] 82% | residual activity [36] 54% | residual activity [37] 63% | residual activity [38] 98% | residual activity [39] 94% | residual activity [40] 75% | residual activity [41] 89% | residual activity [42] 100% | residual activity [43] 86% | residual activity [44] 100% | residual activity [45] 69%

N#CC1(c2ccccn2)CCN(Cc2cc(C(=O)O)c(=O)n3ccccc23)CC1 [MSD-M1PAM]
inactive: residual activity [1] 73% | residual activity [2] 73% | residual activity [3] 100% | residual activity [4] 100% | inhibition [5] -5.05% | residual activity [6] 75% | residual activity [7] 96% | residual activity [8] 73% | residual activity [9] 89% | inhibition [10] 18.5% | residual activity [11] 100% | residual activity [12] 100% | residual activity [13] 100% | residual activity [14] 99% | residual activity [15] 89% | residual activity [16] 93% | residual activity [17] 98% | residual activity [18] 97% | residual activity [19] 84% | residual activity [20] 77% | residual activity [21] 100% | residual activity [22] 97% | residual activity [23] 78% | residual activity [24] 99% | residual activity [25] 97% | residual activity [26] 100% | residual activity [27] 100% | residual activity [28] 100% | residual activity [29] 100% | residual activity [30] 100% | residual activity [31] 84% | residual activity [32] 100% | residual activity [33] 95% | residual activity [34] 100% | residual activity [35] 100% | residual activity [36] 92% | residual activity [37] 89% | residual activity [38] 100% | residual activity [39] 88% | residual activity [40] 82% | residual activity [41] 92% | residual activity [42] 78% | residual activity [43] 100% | residual activity [44] 100% | residual activity [45] 94%
